From US10272056B2, “Treatment for mitochondrial diseases” (The George Washington University a Congressionally …, priority 2015, dated 2019)
Entries after “also recorded” stand apart in the source; their conditions may differ.

Key:
PC12-ND6 cells [1] = test: Mitochondrial mass under chloramphenicol (mito-GFP live-cell confocal microscopy); assay type: cell-based; conditions: NaBt prior to chloramphenicol, up to highest concentration
From the text: FIG. 14A-14E are images from microscopy showing that pre-treatment of PC12-ND6 cells with NaBt prevents chloramphenicol-mediated decrease of mitochondrial mass. (A) Graph of PC12-ND6 cell death upon exposure to different concentrations of chloramphenicol (Cm). Percent of cell death±SEM (n=250 cells). (B) Quantitative immunoblot analysis of mitochondrial-encoded MT-CO1 protein (green) and nuclear-encoded SDH-A protein (red) in Cm-treated PC12-ND6 cells. (C) Graph of MT-CO1/SDH-A ratio normalized to untreated PC12-ND6 cells. Mean±SEM (n=3; compared to untreated cells *p=0.0052, **p=0.0048, and ***p=0.0034). (D) Confocal micrographs of untreated and Cm-treated PC12-ND6 cells transfected with the vector mito-GFP. Scale bar represents 5 μm. (E) Confocal micrographs of NaBt pre-treated PC12-ND6 cells transfected with the vector mito-GFP and exposed to Cm. Scale bar represents 5 μm.
The efficacy of chloramphenicol treatment was determined by simultaneously examining the expression levels of the nuclear-encoded succinate dehydrogenase (SDH-A) subunit of Complex II and the mitochondrial-encoded subunit I of Complex IV (MT-COI) using a quantitative immunoblot approach. […] The effect of chloramphenicol on mitochondrial mass by live-cell confocal microscopy using PC12-ND6 cells transfected with the vector mito-GFP was confirmed.

PC12-ND6 cells [2] = test: NaBt dose-dependent acetylation of nuclear proteins (anti-acetylated Lys immunocytochemistry); assay type: cell-based; conditions: three days, 2, 5 and 10 mM tested
From the text: FIG. 4A-4E are images from microscopy and graphs showing NaBt dose-dependent acetylation and cellular toxicity in PC12-ND6 cells and embryonic E17.5 hippocampal neurons. (A) Confocal micrographs of PC12-ND6 cells (referred to as ND6) grown in the absence or presence of NaBt for three days and labeled with an anti-acetylated Lys antibody (AcLys; green). Scale bar represents 10 μm. […] Results are expressed as relative fluorescence intensity±S.D. (n=250 cells per NaBt concentration; * p=0.0001). (C) Effect of NaBt on PC12-ND6 cell viability. […] Mean±SEM (n=250 cells for each experimental condition; * p=0.0001). (D) Confocal micrographs of NaBt dose-dependent acetylation in E17.5 hippocampal neurons (AcLys; green). Scale bar represents 10 μm.
Sodium butyrate increases protein acetylation in a dose-dependent manner without inducing cellular toxicity. A dose response analysis was performed to determine the optimal concentration of sodium butyrate (NaBt) for inducing maximal acetylation levels with minimal cellular toxicity. PC12-ND6 cells were treated with different concentrations of NaBt (2 mM, 5 mM, and 10 mM) for three days before assessing the degree of acetylated lysine residues by immunocytochemistry and cell viability by live-cell confocal microscopy using the Nuclear-ID™ stain.

PC12-ND6 cells [3] = test: Neurite outgrowth with sub-optimal NGF (10 ng/ml); assay type: cell-based
Method: FIG. 13A-13E are images from microscopy and graphs showing that the timing of NaBt treatment is critical for enhancing neuronal differentiation of PC12-ND6 cells upon sub-optimal neurotrophic cues. (A) Confocal micrographs of PC12-ND6 cells treated with dbcAMP alone or with NaBt (5 mM) in a simultaneous or sequential manner. Scale bar represents 5 μm. (B) Graph of neurite length. Mean±SEM (n=50 for each condition; compared to control (no NaBt) *p=0.0001 and **p=0.0009). (C) Confocal micrographs of PC12-ND6 cells treated with sub-optimal NGF concentration (10 ng/ml) alone or first NaBt (5 mM) in a simultaneous or sequential manner. Scale bar represents 10 μm. (D) Graph of average total neurite length. Mean±SEM (n=50 for each condition; compared to control *p=0.0001). (E) Graph of the frequency of total neurite length below and above 90 μm.
NaBt-mediated modulation of the neuronal potential of PC12-ND6 cells in the context of sub-optimal NGF concentration (10 ng/ml) was further investigated. Transfected PC12-ND6 cells were first treated with NaBt (5 mM) for three days prior to NGF exposure (10 ng/ml). A time course analysis of neurite outgrowth was conducted during the first two days of NGF exposure by live-cell confocal microscopy. […] Such trend of neurite extension was maintained at day 2 of NGF exposure with NaBt-pre-treated or co-treated PC12-ND6 cells. Whether NaBt added concomitantly with NGF (10 ng/ml) could mediate increased neuritogenesis was also assessed.

[4] = test system: mouse models of neurodegenerative diseases and ischemia/stroke; conditions: in vivo; cited from earlier work
MELAS fibroblasts = test: Mitochondrial mass, morphology and networking (MTG live cell confocal analysis); assay type: cell-based, human; conditions: three-day exposure; NaBt 2.5 mM, TBN 1.5 mM, AN9 300 μM
From the text: FIG. 17A-17C are images from microscopy and graphs showing that butyrates rescue the mitochondrial phenotype in MELAS fibroblasts. (A) Confocal analysis of healthy and MELAS fibroblasts treated as indicated and labeled with the MTG dye; scale bar=10 (B) Analysis of the mitochondrial mass; n=3 (60 cells per experiment; ^‡p<0.05, unpaired T-test *p<0.05, paired T-test). (C) Analysis of Δψm (^‡p<0.05, unpaired T-test; *p<0.05, paired T-test).
(§1) Butyrates rescue the mitochondrial mass, morphology, networking, membrane potential, and cellular ATP levels in MELAS fibroblasts. Skin fibroblasts from two MELAS patients and from a healthy subject as a control were used. Dose-dependent analyses of butyrates to determine their best concentrations for eliciting an optimal mitochondrial response without cellular toxicity was performed. Healthy and MELAS fibroblasts were treated with PBS, NaBt (2.5 mM), TBN (1.5 mM), or AN9 (300 μM) for three days before labeling with the MTG dye for live cell confocal analysis.
as §1, with “networking, and” for “networking,”, “potential” for “potential, and cellular ATP levels”, “butyrates was performed” for “butyrates”, “toxicity.” for “toxicity was performed.”

PC12-ND6 cells [5] = test: ROS (superoxide anions) by MitoSOX live cell confocal microscopy; assay type: cell-based; conditions: NaBt 5 mM, three days
Method: PC12-ND6 cells were grown in the absence or presence of NaBt (5 mM) for three days before being labeled with the MitoSox™ dye and the nuclear counterstain Hoechst 33342 and analyzed by live cell confocal imaging. Images are representative of three independent experiments. Scale bar represents 10 μm.
On the basis that increased ΔΨm could result in elevated ROS levels due to electron leakage through the mitochondrial electron transfer chain (ETC), the relative levels of superoxide anions (O2^−) were measured by live cell confocal microscopy using the redox-sensitive fluorogenic live-cell permeant dye MitoSOX™, as described in Uittenbogaard et al., 2010b.

CCCC(=O)[O-].[Na+] [NaBt, sodium butyrate]
mitochondrial biomass with NaBt pre-treatment (PC12-ND6 cells [1]): sustain their mitochondrial biomass | NaBt concentration showing maximal acetylation levels of nuclear proteins (PC12-ND6 cells [2]): 5 mM | neurite outgrowth, NaBt and NGF administered simultaneously (PC12-ND6 cells [3]; NGF 10 ng/ml): No synergistic effect | average total neurite length (PC12-ND6 cells [3]; NaBt 5 mM three days pre-treatment, 24 hours NGF 10 ng/ml, control 60 μm): 168 μm | percent of neurites longer than 90 μm (PC12-ND6 cells [3]; NaBt pre-treated, NGF 10 ng/ml, control 16%): 79% | effects in mouse models [4]: stimulates neurogenesis, enhances synaptic plasticity and memory, while preventing neuronal death | mitochondrial mass, morphology, and networking (MELAS fibroblasts): restored normal mitochondrial mass, morphology, and networking | ROS production (PC12-ND6 cells [5]): does not trigger ROS generation; also recorded: failed to generate ROS production
